Measured values: patent US20090156518A1, “STABLE PHARMACEUTICAL COMPOSITION COMPRISING BETA-LACTAM ANTIBIOTIC AND BUFFER” (priority 2006, published 2009)
Marks after values point to notes of the source that are not given here.

Experiment: amounts of β-lactam antibiotic, β-lactamase inhibitor (C18 reverse-phase LC, UV-VIS) and aminoglycoside (HPLC-ELSD) in solution over time
Assay type: physicochemical

SMILES: C[C@]1(Cn2ccnn2)[C@H](C(=O)O)N2C(=O)C[C@H]2S1(=O)=O [Tazobactam sodium]
- amount of component as percentage with respect to the amount at the initial time (Example 8: freeze-dried ceftriaxone sodium, tazobactam sodium, gentamicin sulfate, citrate pH 6.75, 2.5% fructose, 7 days 0° C., in 100 mL water, Time 0 h): 102.2%
- amount of component as percentage with respect to the amount at the initial time (Example 8: freeze-dried ceftriaxone sodium, tazobactam sodium, gentamicin sulfate, citrate pH 6.75, 2.5% fructose, 7 days 0° C., in 100 mL water, Time 1 h): 97.53%
- amount of component as percentage with respect to the amount at the initial time (Example 8: freeze-dried ceftriaxone sodium, tazobactam sodium, gentamicin sulfate, citrate pH 6.75, 2.5% fructose, 7 days 0° C., in 100 mL water, Time 2 h): 94.16%
- amount of component as percentage with respect to the amount at the initial time (Example 8: freeze-dried ceftriaxone sodium, tazobactam sodium, gentamicin sulfate, citrate pH 6.75, 2.5% fructose, 7 days 0° C., in 100 mL water, Time 4 h): 94.58%
- amount of component as percentage with respect to the amount at the initial time (Example 8: freeze-dried ceftriaxone sodium, tazobactam sodium, gentamicin sulfate, citrate pH 6.75, 2.5% fructose, 7 days 0° C., in 100 mL water, Time 6 h): 95.45%
- amount of component as percentage with respect to the amount at the initial time (Example 8: freeze-dried ceftriaxone sodium, tazobactam sodium, gentamicin sulfate, citrate pH 6.75, 2.5% fructose, 7 days 0° C., in 100 mL water, Time 8 h): 94.44%
- amount of component as percentage with respect to the amount at the initial time (Example 16: 10 mL of the final solution (cefoperazone sodium, tazobactam sodium, etimicin sulfate, citrate) + gentamicin sulfate 16 mg, Time 0 h): 93.36%
- amount of component as percentage with respect to the amount at the initial time (Example 16: 10 mL of the final solution (cefoperazone sodium, tazobactam sodium, etimicin sulfate, citrate) + gentamicin sulfate 16 mg, Time 1 h): 104.8%
- amount of component as percentage with respect to the amount at the initial time (Example 16: 10 mL of the final solution (cefoperazone sodium, tazobactam sodium, etimicin sulfate, citrate) + gentamicin sulfate 16 mg, Time 2 h): 100.0%
- amount of component as percentage with respect to the amount at the initial time (Example 16: 10 mL of the final solution (cefoperazone sodium, tazobactam sodium, etimicin sulfate, citrate) + gentamicin sulfate 16 mg, Time 4 h): 96.58* %
- amount of component as percentage with respect to the amount at the initial time (Example 16: 10 mL of the final solution (cefoperazone sodium, tazobactam sodium, etimicin sulfate, citrate) + gentamicin sulfate 16 mg, Time 6 h): 106.1* %
- amount of component as percentage with respect to the amount at the initial time (Example 16: 10 mL of the final solution (cefoperazone sodium, tazobactam sodium, etimicin sulfate, citrate) + gentamicin sulfate 16 mg, Time 8 h): 107.1* %
- amount of component as percentage with respect to the amount at the initial time (Example 16: freeze-dried cefoperazone sodium 4 g, tazobactam sodium 1 g, citrate pH 6.75, 7 days 0° C., in 100 mL water, 10 mL + etimicin sulfate 20 mg, room temperature, Time 0 h): 98.77%
- amount of component as percentage with respect to the amount at the initial time (Example 16: freeze-dried cefoperazone sodium 4 g, tazobactam sodium 1 g, citrate pH 6.75, 7 days 0° C., in 100 mL water, 10 mL + etimicin sulfate 20 mg, room temperature, Time 1 h): 108.2%
- amount of component as percentage with respect to the amount at the initial time (Example 16: freeze-dried cefoperazone sodium 4 g, tazobactam sodium 1 g, citrate pH 6.75, 7 days 0° C., in 100 mL water, 10 mL + etimicin sulfate 20 mg, room temperature, Time 2 h): 110.8%
- amount of component as percentage with respect to the amount at the initial time (Example 16: freeze-dried cefoperazone sodium 4 g, tazobactam sodium 1 g, citrate pH 6.75, 7 days 0° C., in 100 mL water, 10 mL + etimicin sulfate 20 mg, room temperature, Time 4 h): 97.39%
- amount of component as percentage with respect to the amount at the initial time (Example 16: freeze-dried cefoperazone sodium 4 g, tazobactam sodium 1 g, citrate pH 6.75, 7 days 0° C., in 100 mL water, 10 mL + etimicin sulfate 20 mg, room temperature, Time 6 h): 106.3%
- amount of component as percentage with respect to the amount at the initial time (Example 16: freeze-dried cefoperazone sodium 4 g, tazobactam sodium 1 g, citrate pH 6.75, 7 days 0° C., in 100 mL water, 10 mL + etimicin sulfate 20 mg, room temperature, Time 8 h): 106.3%
- amount of component as percentage with respect to the amount at the initial time (Example 20: ceftriaxone sodium 2 g, tazobactam sodium 2 g, gentamicin sulfate 160 mg, citrate pH 6.75, 200 mL water, room temperature, Time 0 h): 102.2%
- amount of component as percentage with respect to the amount at the initial time (Example 20: ceftriaxone sodium 2 g, tazobactam sodium 2 g, gentamicin sulfate 160 mg, citrate pH 6.75, 200 mL water, room temperature, Time 1 h): 97.53%
- amount of component as percentage with respect to the amount at the initial time (Example 20: ceftriaxone sodium 2 g, tazobactam sodium 2 g, gentamicin sulfate 160 mg, citrate pH 6.75, 200 mL water, room temperature, Time 2 h): 94.16%
- amount of component as percentage with respect to the amount at the initial time (Example 20: ceftriaxone sodium 2 g, tazobactam sodium 2 g, gentamicin sulfate 160 mg, citrate pH 6.75, 200 mL water, room temperature, Time 4 h): 94.58%
- amount of component as percentage with respect to the amount at the initial time (Example 20: ceftriaxone sodium 2 g, tazobactam sodium 2 g, gentamicin sulfate 160 mg, citrate pH 6.75, 200 mL water, room temperature, Time 6 h): 95.45%
- amount of component as percentage with respect to the amount at the initial time (Example 20: ceftriaxone sodium 2 g, tazobactam sodium 2 g, gentamicin sulfate 160 mg, citrate pH 6.75, 200 mL water, room temperature, Time 8 h): 94.44%
